Experimental data: patent publication US11186588B2 (AYUMI PHARMACEUTICAL CORPORATION, priority 2017, dated 2021)

Experiments:
[1] = molecular target: Recombinant BRD4 (44-168) protein (Homo sapiens (Human), UniProt O60885); assay: BRD4-H4KAc4 binding assay (amplified luminescence proximity homogeneous assay, AlphaScreen); details: 10 uM
Method: In order to evaluate BRD4 inhibitory activity of the present compounds, BRD4-H4KAc4 binding assay was carried out by an amplified luminescence proximity homogeneous assay. The specific method is described below.
H4KAc4 peptide (available from Toray Research Center, Inc., sequence SGRGK(Ac)GGK(Ac)GLGK(Ac)GGAK(Ac)RHR-K(Biotin)-NH2) was dissolved in 1×Assay buffer to prepare 1 mM H4KAc4 peptide stock solution.
N-terminal His tag/C-terminal FLAG tag-fused type Recombinant BRD4 (44-168) protein (available from Active Motif, Cat No. 31380) was diluted with 1×Assay buffer to 1,250-fold to prepare 250 nM BRD4 solution.
1% DMSO solution (control) and 2 μL of each compound solution in each concentration were added to each well of AlphaPlate-384 (from PerkinElmer, Cat No. 6008350). Next, 2 μL of 250 nM BRD4 solution was added to each well of AlphaPlate-384. Further, 2 μL of 250 nM H4KAc4 peptide solution was added to each well of AlphaPlate-384. After addition of the 250 nM H4KAc4 peptide solution, the mixture was allowed to stand at room temperature under light shielding for 60 minutes, and 4 μL of AlphaScreen beads were added to each well of AlphaPlate-384. After addition of the AlphaScreen beads, the mixture was allowed to stand at room temperature under light shielding for 60 minutes, emission at 520-620 nm upon excitation at 680 nm was detected by EnVision multilabel counter (from PerkinElmer), and binding of BRD4 and H4KAc4 was detected. Incidentally, the evaluation of each compound was carried out in duplicate (2 well per 1 compound).
(§1) The BRD4 inhibition rate (%) was calculated by the following equation using Microsoft EXCEL 2010. BRD4 inhibition rate (%)=100−{(luminescence intensity average value of each compound added well)−(average value of luminescence intensity of blank well))/(average value of luminescence intensity of control well)−(average value of luminescence intensity of blank well)}×100

NF-κB = NF-κB reporter gene assay (TNF-α stimulated A549/NF-κB-luc cells); type: cell-based; details: Homo sapiens, TNF-α stimulation
Method: In order to evaluate NF-κB inhibitory activity of the present compounds, NF-κB reporter gene assay was carried out. The specific method is described below.
Gene recombinant human TNF-α (available from R&D systems, Cat No. 210-TA) was dissolved in D-PBS(−) (available from Wako Pure Chemical Industries, Ltd., Cat No. 293-72601) to prepare 100 μg/mL of TNF-α solution stock solution. 100 μg/mL of the TNF-α solution stock solution was diluted with the culture medium to prepare 10 ng/mL of TNF-α solution.
A549/NF-κB-luc cells (available from Panomics, Cat No. LR0051) were prepared at 375,000 cells/mL in the culture medium. The 375,000 cells/mL A549/NF-κB-luc cell suspension was seeded at 80 μL each on a white 96-well plate (available from Greiner, Cat No. 655073). One hour after seeding the cells, 10 μL of 2% DMSO solution (control) and each compound solution in each concentration were added to each well of the 96-well plate. One hour after the addition of each compound solution, 10 ng/mL of the TNF-α solution (10 μL) was added to each well of the 96-well plate. Three hours after the addition of 10 ng/mL of the TNF-α solution, 100 μL of Steady-Glo reagent (available from Promega, Cat No. E2510) was added to each well of the 96-well plate. After 30 to 90 minutes of the addition of the Steady-Glo reagent, the luminescence intensity of each well was detected by EnVision multilabel counter (available from PerkinElmer).
as §1, with “NF-κB” for “The BRD4”, “NF-κB” for “BRD4”, “well)}×100 In addition, IC50 values were calculated from the calculated NF-κB inhibition rate (%) using curve fitting software XLfit (available from IDBS).” for “well)}×100”

| Structure (SMILES) | inhibition at 10 µM [1] | IC50 (NF-κB) |
| --- | --- | --- |
| Cc1sc2c(c1C)C(c1ccc(Cl)cc1)=NN(Cc1cccnc1CO)c1nnc(C)n1-2 [Example 86, (3-((4-(4-chlorophenyl)-2,3,9-trimethyl-6H-thieno[2,3-e][1,2,4]triazolo[3,4-c][1,2,4]triazepin-6-yl)methyl)pyridin-2-yl)methanol] | 100% | 0.0953 µM |
| Cc1nnc2n1-c1sccc1C(c1ccc(Cl)cc1)=NN2Cc1cccnc1 [Example 61, 4-(4-chlorophenyl)-9-methyl-6-(pyridin-3-ylmethyl)-6H-thieno[2,3-e][1,2,4]triazolo[3,4-c][1,2,4]triazepine] | 100% | 0.377 µM |
| Cc1sc2c(c1C)C(c1ccc(Cl)cc1)=NN(Cc1cccc(C(F)(F)F)c1)c1nnc(C)n1-2 [Example 18, 4-(4-chlorophenyl)-2,3,9-trimethyl-6-(3-(trifluoromethyl)benzyl)-6H-thieno[2,3-e][1,2,4]triazolo[3,4-c][1,2,4]triazepine] | 100% | 0.144 µM |
| Cc1sc2c(c1C)C(c1ccc(Cl)cc1)=NN(CCc1ccccc1)c1nnc(C)n1-2 [Example 19, 4-(4-chlorophenyl)-2,3,9-trimethyl-6-phenethyl-6H-thieno[2,3-e][1,2,4]triazolo[3,4-c][1,2,4]triazepine] | 96.6% | 1.32 µM |
| Cc1ccc(CN2N=C(c3ccc(Cl)cc3)c3c(sc(C)c3C)-n3c(C)nnc32)cc1 [Example 13, 4-(4-chlorophenyl)-2,3,9-trimethyl-6-(4-methylbenzyl)-6H-thieno[2,3-e][1,2,4]triazolo[3,4-c][1,2,4]triazepine] | 100% | 0.233 µM |
| CC(=O)Nc1cc(CN2N=C(c3ccc(Cl)cc3)c3c(sc(C)c3C)-n3c(C)nnc32)ccn1 [Example 56, N-(4-((4-(4-chlorophenyl)-2,3,9-trimethyl-6H-thieno[2,3-e][1,2,4]triazolo[3,4-c][1,2,4]triazepin-6-yl)methyl)pyridin-2-yl)acetamide] | 100% | 0.942 µM |
| Cc1nnc2n1-c1sccc1C(c1ccc(Cl)cc1)=NN2Cc1ccncc1 [Example 63, 4-(4-chlorophenyl)-9-methyl-6-(pyridin-4-ylmethyl)-6H-thieno[2,3-e][1,2,4]triazolo[3,4-c][1,2,4]triazepine] | 100% | 5.24 µM |
| COc1ccccc1C1=NN(Cc2cccnc2)c2nnc(C)n2-c2sc(C)c(C)c21 [Example 74, 4-(2-methoxyphenyl)-2,3,9-trimethyl-6-(pyridin-3-ylmethyl)-6H-thieno[2,3-e][1,2,4]triazolo[3,4-c][1,2,4]triazepine] | 100% | 2.14 µM |
| Cc1cccc(CN2N=C(c3ccc(Cl)cc3)c3c(sc(C)c3C)-n3c(C)nnc32)c1 [Example 12, 4-(4-chlorophenyl)-2,3,9-trimethyl-6-(3-methylbenzyl)-6H-thieno[2,3-e][1,2,4]triazolo[3,4-c][1,2,4]triazepine] | 100% | 0.0321 µM |
| Cc1sc2c(c1C)C(c1ccccc1)=NN(Cc1ccccc1)c1nnc(C)n1-2 [Example 29, 6-benzyl-2,3,9-trimethyl-4-phenyl-6H-thieno[2,3-e][1,2,4]triazolo[3,4-c][1,2,4]triazepine] | 101% | 0.265 µM |
| Cc1sc2c(c1C)C(c1ccc(Cl)cc1)=NN(Cc1cccnc1Br)c1nnc(C)n1-2 [Example 79, 6-((2-bromopyridin-3-yl)methyl)-4-(4-chlorophenyl)-2,3,9-trimethyl-6H-thieno[2,3-e][1,2,4]triazolo[3,4-c][1,2,4]triazepine] | 100% | 0.742 µM |
| Cc1sc2c(c1C)C(c1ccc(Cl)cc1)=NN(Cc1cccnc1N)c1nnc(C)n1-2 [Example 81, 3-((4-(4-chlorophenyl)-2,3,9-trimethyl-6H-thieno[2,3-e][1,2,4]triazolo[3,4-c][1,2,4]triazepin-6-yl)methyl)pyridin-2-amine] | 100% | 0.0472 µM |
| COC(=O)c1ncccc1CN1N=C(c2ccc(Cl)cc2)c2c(sc(C)c2C)-n2c(C)nnc21 [Example 83, methyl 3-((4-(4-chlorophenyl)-2,3,9-trimethyl-6H-thieno[2,3-e][1,2,4]triazolo[3,4-c][1,2,4]triazepin-6-yl)methyl)picolinate] | 100% | 2.82 µM |
| Cc1sc2c(c1C)C(c1ccc(Cl)cc1)=NN(Cc1ccc(C(F)(F)F)cc1)c1nnc(C)n1-2 [Example 14, 4-(4-chlorophenyl)-2,3,9-trimethyl-6-(4-(trifluoromethyl)benzyl)-6H-thieno[2,3-e][1,2,4]triazolo[3,4-c][1,2,4]triazepine] | 100% | 0.276 µM |
| Cc1sc2c(c1C)C(c1ccc(Cl)cc1)=NN(Cc1ccnc(F)c1)c1nnc(C)n1-2 [Example 42, 4-(4-chlorophenyl)-6-((2-fluoropyridin-4-yl)methyl)-2,3,9-trimethyl-6H-thieno[2,3-e][1,2,4]triazolo[3,4-c][1,2,4]triazepine] | 100% | 1.15 µM |
| Cc1sc2c(c1C)C(c1ccc(Cl)cc1)=NN(Cc1cc(Cl)ccn1)c1nnc(C)n1-2 [Example 40, 4-(4-chlorophenyl)-6-((4-chloropyridin-2-yl)methyl)-2,3,9-trimethyl-6H-thieno[2,3-e][1,2,4]triazolo[3,4-c][1,2,4]triazepine] | 100% | 0.699 µM |
| Cc1sc2c(c1C)C(c1ccc(Cl)cc1)=NN(Cc1cnccc1Cl)c1nnc(C)n1-2 [Example 43, 4-(4-chlorophenyl)-6-((4-chloropyridin-3-yl)methyl)-2,3,9-trimethyl-6H-thieno[2,3-e][1,2,4]triazolo[3,4-c][1,2,4]triazepine] | 100% | 1.83 µM |
| COc1ccc(CN2N=C(c3ccc(Cl)cc3)c3ccsc3-n3c(C)nnc32)cc1 [Example 58, 4-(4-chlorophenyl)-6-(4-methoxybenzyl)-9-methyl-6H-thieno[2,3-e][1,2,4]triazolo[3,4-c][1,2,4]triazepine] | 100% | 0.728 µM |
| COc1ccc(CN2N=C(c3ccc(Cl)cc3)c3cc(C)sc3-n3c(C)nnc32)cc1 [Example 65, 4-(4-chlorophenyl)-6-(4-methoxybenzyl)-2,9-dimethyl-6H-thieno[2,3-e][1,2,4]triazolo[3,4-c][1,2,4]triazepine] | 100% | 0.896 µM |
| COc1ccc(CN2N=C(c3ccc(Cl)cc3)c3c(sc(C)c3C)-n3c(C)nnc32)nc1 [Example 47, 4-(4-chlorophenyl)-6-((5-methoxypyridin-2-yl)methyl)-2,3,9-trimethyl-6H-thieno[2,3-e][1,2,4]triazolo[3,4-c][1,2,4]triazepine] | 100% | 0.554 µM |
| Cc1sc2c(c1C)C(c1ccc(Cl)cc1)=NN(Cc1cccs1)c1nnc(C)n1-2 [Example 45, 4-(4-chlorophenyl)-2,3,9-trimethyl-6-(thiophen-2-ylmethyl)-6H-thieno[2,3-e][1,2,4]triazolo[3,4-c][1,2,4]triazepine] | 99.9% | 0.429 µM |
| Cc1sc2c(c1C)C(c1ccc(Cl)cc1)=NN(Cc1cccc(N)c1)c1nnc(C)n1-2 [Example 52, 3-((4-(4-chlorophenyl)-2,3,9-trimethyl-6H-thieno[2,3-e][1,2,4]triazolo[3,4-c][1,2,4]triazepin-6-yl)methyl)aniline] | 100% | 5.23 µM |
